Measured values as given in patent US8609695B2, “Methods of treating and/or suppressing insulin resistance” (Endorecherche, Inc., priority 1999, dated 2013).

How the values were obtained:
OVX Sprague-Dawley Rat = test: 11-month combination treatment DHEA + EM-800, body weight (Example 2); assay type: in vivo; conditions: OVX rats, 11 months
From the text: 1.1 Test Compounds: • DHEA: Available from Steraloids Inc. Wilton, N.H. Lot: H137; • EM-800 is synthesized at the UCPO Department of Lab. of Mol. Endo., CHUL.
1.2 Vehicle • a) Gelatin: Lab-Grade, ACP Chemicals Inc., Montreal, Qc. Lot# F0195 • b) Ethanol: Commercial Alcohols Inc., Brampton, Ontario. Lot No. 11296 • c) Polyethylene Glycol-600 (PEG-600): Omega Chemical Company Inc., Lévis, Quebec. Lot#: 00-0117-EZ • d) Normal Saline: 0.9% Sodium Chloride irrigation USP. Abbott Laboratories Limited, St-Laurent, Qc. • e) Propylene Glycol (1, 2-Propanediol, PPG): Sigma Chemical Co., St-Louis, Mo. • g) Vehicle 1: 4% ETOH-4% PEG-600-1% gelatin-0.9% NaCl—H2O for Subcutaneous Injection. • h) Vehicle 2: 50% ETOH-50% PPG for Topical Application.
3.1 Perapartion of Vehicle and Test Articles • a) Preparation of EM-800: • EM-800 or both of them will be dissolved in ETOH:PEG-600 (1:1) with agitation on Fisher Scientific Stirring Hot Plate, then, 1% GNS will be added to the required volume. • b) Preparation of DHEA: • DHEA is dissolved in 50% ETOH, 50% PPG by agitation.
3.2 Animal Preparation and Treatments • Animals will be treated once daily as indicated on Item 6.1. DHEA, prepared in 50% ETOH, 50% PPG, will be percutaneously applied (P.C.) to corresponding animals once daily (I.D.) in a volume of 0.5 ml. […]

[1] = tested on: ovariectomized female rats; test: SERM comparison, energy balance and lipid-lipoprotein metabolism (Example 10); assay type: in vivo, Rattus norvegicus; conditions: OVX rats, 20 days
Summary of the method: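 Ovariectomized rats on a high-carbohydrate diet dosed by oral gavage 0.5 mg/rat in 0.4% methylcellulose for 20 days; sham-operated group included. Body weight and food intake every 2 days, DEXA body fat on Day 17. Necropsy on day 21, ~24 h post-dose after 6 h fast: serum lipids, glucose, insulin, leptin, tissue weights.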

[2] = tested on: ovariectomized female rats; test: Uterine weight, fat and lipid, 20-day treatment (Example 13); assay type: in vivo, Rattus norvegicus; conditions: 20 days
Procedure: The objective of this study was to compare the effect on uterine, weight, fat and blood lipids following treatment with EM-652.HCl, ERA-923 and lasofoxifene, administered alone or in combination with EM-652.HCl, to ovariectomized female rats. For this purpose, each compound was administered orally for 20 days to ovariectomized female rats and at the end of the treatment period, the uterus and fat were collected and weighed.
d) Diet: • Certified Rodent feed (Lab Diet #5002, pellets) and tap water were provided ad libitum. Randomization:
Seventy rats were separated into 7 groups of 9 to 11 animals for conduct of the study outlined below:
Animals from groups 2 to 9 were ovariectomized under Isoflurane-induced anesthesia on Day 7 of the study.
The vehicle or tested compounds were given as suspension in 0.4% methylcellulose by oral gavage (0.5 ml/gavage/rat) from Day 2 to Day 21 of the study.
Rats were weighed on Study Day 1 and at the necropsy (SD 22).
Approximately 24 hours after the last dosing, overnight fasted rats under Isoflurane-induced anesthesia were killed by exsanguination at the abdominal aorta.
Uteri and retroperitonal adipose tissue were removed and weighed.

[3] = high carbohydrate diet, 0.5 mg/rat oral gavage
[4] = OVX rats, commercial rodent diet, 0.5 mg oral, EM-652.HCl 2.5 mg in combinations

C[C@]12CC[C@H](O)CC1=CC[C@@H]1[C@@H]2CC[C@]2(C)C(=O)CC[C@@H]12 [DHEA, dehydroepiandrosterone]
inhibition of the OVX stimulation of body weight (OVX Sprague-Dawley Rat; DHEA 12.5 mg daily, EM-800 daily): 87%
Total weight (OVX Sprague-Dawley Rat; DHEA 12.5 mg/day/rat percutaneous, EM-800 100 μg/day/rat s.c.): 490.8 ± 24.1 g

CC1=C(c2ccc(O)cc2)[C@H](c2ccc(OCCN3CCCCC3)cc2)Oc2cc(O)ccc21.Cl [EM-652.HCl, (S)-(+)-7-hydroxy-3-(4′-hydroxyphenyl)-4-methyl-2-(4″-(2′″-piperidino-ethoxy)phenyl)-2H-1-benxopyran hydrochloride]
Serum insulin (in words) ([1]; 0.5 mg/rat): decreased
Brown adipose tissue Lipoprotein lipase activity [1, 3]: 900 ± 91 μU/g protein
Brown adipose tissue weight [1, 3]: 0.339 ± 0.038 g
Cumulative food intake [1, 3]: 324 ± 5 g
Serum glucose [1, 3]: 15.9 ± 1.4 mmol/L
Serum insulin [1, 3]: 0.122 ± 0.021 nmol/L
Serum leptin [1, 3]: 1.10 ± 0.22 ng/mL
Serum triglycerides [1, 3]: 0.91 ± 0.17 mmol/L
Soleus muscle Lipoprotein lipase activity [1, 3]: 14.5 ± 4.1 μU/g protein
Soleus muscle weight [1, 3]: 0.118 ± 0.018 g
Total weight [1, 3]: 252 ± 4 g
VastusLateralis muscle weight [1, 3]: 1.00 ± 0.047 g
White adipose tissue inguinal Lipoprotein lipase activity [1, 3]: 684 ± 216 μU/g protein
White adipose tissue inguinal weight [1, 3]: 0.244 ± 0.028 g
White adipose tissue retroperitoneal Lipoprotein lipase activity [1, 3]: 1917 ± 365 μU/g protein
White adipose tissue retroperitoneal weight [1, 3]: 1.32 ± 0.21 g
OVX-induced increase in total serum cholesterol levels ([2]; 0.5 mg): completely prevented
prevention of body weight increase induced by ovariectomy ([2]; OVX rats, 0.5 mg): 64%
Cholesterol [2, 4]: 1.00 ± 0.11 mmol/L
Final Body Weight [2, 4]: 238 ± 4 g
